From patent US9115061B2, “Naphthalene-based inhibitors of anti-apoptotic proteins” (BURNHAM INSTITUTE FOR MEDICAL RESEARCH, priority 2007, dated 2015)
pEC50, pIC50, pKd: −log10 of the molar value.

Assays:
Mcl-1 = Mcl-1 (Homo sapiens (Human), UniProt Q07820); conditions: cited from earlier work
H1299 = conditions: cited from earlier work
GST-BCL-2 = GST-BCL-2 (Homo sapiens (Human), UniProt P10415); test: Fluorescence polarization assay (FITC-Bim BH3 peptide); format: binding; conditions: for pEC50: read-out: EC50 FPA BCL-2
Protocol: (§1) After 30 min incubation at room temperature, the polarization values in millipolarization units were measured at excitation/emission wavelengths of 480/535 nm with a multilabel plate reader (PerkinElmer). IC50 was determined by fitting the experimental data to a sigmoidal dose-response nonlinear regression model (SigmaPlot 10.0.1, Systat Software, Inc., San Jose, Calif., USA). Data reported are mean of three independent experiments ±standard error (SE). Performance of BCL-2 and Mcl-1 FPA are similar. […] Fluorescence polarization was measured after 10 min.

H460 cell line = test: Cell viability, ATP-LITE assay; format: cell-based, human; conditions: for pEC50: 72 hours, ATP-LITE
Protocol: (§2) The activity of the compounds against human cancer cell lines (PC3ML, H460, H1299, RS11846) were assessed by using the ATP-LITE assay (PerkinElmer). All cells were seeded in either F12 or RPMI1640 medium with 5 mM L-glutamine supplemented with 5% fetal bovine serum (Mediatech Inc.), penicillin and streptomycin (Omega). For maintenance, cells were cultured in 5% FBS. Cells plated into 96 well plates at varying initial densities depending on doubling time. H460 and H1299 plated at 2000 cells/well, A549 and PC3 at 3000 cells/well, and RS118456S at 10,000 cells/well. Compounds were diluted to final concentrations with 0.1% DMSO. Prior to dispensing compounds onto cells, fresh 5% media was placed into wells. Administration of compounds occurred 24 hours after seeding into the fresh media. Cell viability was evaluated using ATP-LITE reagent (PerkinElmer) after 72 hours of treatment. Data were normalized to the DMSO control-treated cells using Prism version 5.01 (Graphpad Software).

PC3ML cells = test: Cell viability, ATP-LITE assay; format: cell-based, human
Protocol: as §2

RS11846 cell line [1] = test: Cell viability, ATP-LITE assay; format: cell-based, human; conditions: 72 hours
Protocol: as §2

RS11846 cell line [2] = test: Apoptosis, Annexin V and propidium iodide assay; format: cell-based, human; conditions: 1-2 days; read-out: RS11846 EC50 (Annexin V- and propidium iodide assay)
Protocol: The apoptotic activity of the compounds against RS11846 cells was assessed by staining with Annexin V- and propidium iodide (PI). Lymphoma cell line, RS11846, was cultured in RPMI 1640 medium (Mediatech Inc., Herndon, Va. 20171) containing 10% fetal bovine serum (Mediatech Inc., Herndon, Va. 20171) and Penicillin/Streptomycin (Mediatech Inc., Herndon, Va. 20171). […] The percentage of viable cells was determined by FITC-Annexin V- and propidium iodide (PI)-labeling, using an Apoptosis Detection kit (BioVision Inc.), and analyzing stained cells by flow cytometry (FACSort; Bectin-Dickinson, Inc.; Mountain View, Calif.). Cells that were annexin-V-negative and PI-negative were considered viable.

Plasma stability = format: in vitro ADME, rat; conditions: for Plasma Stability (T = 1 hr): rat plasma, 37.5° C.
Protocol: A 20 μL aliquot of a 10 mM solution in DMSO of the test compound was added to […] of heparinized rat plasma (Lampire, P1-150N) to obtain a 100 μM final solution. The mixture was incubated for 1 h at 37.5° C. Aliquots of 100 μL were taken (0, 30 min, 1 h) and diluted with 200 μL of MeOH containing internal standard.

Balb/c mice = test: Oral toxicity study in normal Balb/c mice; format: in vivo, mouse
Protocol: Compounds or vehicle control were dosed 15 times over 3 weeks, giving compounds daily for 5 consecutive days (Monday-Friday), resting on weekends.
Both compounds were provided by NCI-DTP (RAID-program). Compounds were dissolved in 100% sesame oil just before oral administration. Vehicle-control consisted of corresponding concentration of ascorbic acid suspended in 100% sesame oil.
(§3) Spleens were removed and weighed.
Whole blood (250 μl) was collected in EDTA-coated glass tubes (purple top; MICROTAINER Brand Tube with EDTA, Catalogue #365973, Becton, Dickinson and Company, New Jersey 07417-1885) via either cardiac puncture or severing the brachial artery of anesthetized mice. After thorough mixing, specimens were analyzed using a VetScan HM2 (Abaxis Inc., Union City, Calif. 94587) hematology analyzer, measuring white blood cell count (WBC), red blood cell count (RBC), platelet (PLT) count, leukocyte differential (including % lymphocyte, % monocyte and % granulocyte), hematocrit (Ht), and hemoglobin (Hb).
(Eppendorf Centrifuge 5415C) for 2 minutes to separate serum from cells and fibrin clot. The resulting serum specimens were analyzed using an automated blood chemistry analyzer (“COBAS MIRA Classic”; Roche, Indianapolis, Ind. 46250-0414) to measure alanine aminotransferase (ALT) and aspartate aminotransferase AST), blood urea nitrogen (BUN), and […].
Stomach and intestines were examined also imaged by ultrasound for evidence of dilation, an indication of GI toxicity. Briefly, mice were anesthetized using a mixture of isofluorane (5%) and oxygen gas (95%), restrained on a heated table using Aquagel Lubrication Gel (Parker Laboratories, Inc., Fairfield, N.J. 07004), and abdominal hair was removed with a chemical depilation agent (Nair™ Hair Removal, Church & Dwight Co., Inc., Princeton, N.J. 08543). Aquasonic 100 Ultrasound Transmission Gel (Parker Laboratories, Inc., Fairfield, N.J. 07004) was applied to the abdomen prior to imaging using a high-frequency probe to assess gas and intestinal distention.
Immediately after ultrasound imaging, electrocardiogram (ECG) analysis of anesthetized mice was performed using a MP150 Biopack System.

380 cell line = test: Apoptosis induction in NHL B-cell lines, Annexin V-FITC/PI; format: cell-based; conditions: 48 hours, relative to DOHH2 and RS11846
Protocol: (§4) After 48 hours of incubation, % viability was determined by FACSort after staining cells by the use of an Annexin V-FITC/PI Apoptosis Detection kit (BioVision Inc.). Viable cells were defined by Annexin V-negative, PI-negative cells.

DOHH2 cell line = test: as above; format: cell-based; conditions: 48 hours; read-out: IC50, % viability DOHH2
Protocol: as §4

RS11846 cell line [3] = test: as above; format: cell-based; conditions: 48 hours; read-out: IC50, % viability RS11846
Protocol: as §4

[4] = test system: murine B-cells from BCL-2 transgenic mice; test: Viability of cultured splenocytes, Annexin V-FITC/PI; format: cell-based; conditions: 18 hours; read-out: IC50, induction of apoptosis in cultured B-cells of BCL-2 transgenic mouse
Protocol: (§5) Spleens were excised from sacrificed mice and cell suspensions treated with a mouse erythrocyte lysing kit (R & D Systems). Total splenocyte count was determined by typan blue dye exclusion assays using hemocytometers. The percentage of B-lymphocytes was determined by fluorescence activated cell sorter (FACS) analysis SACS-CANTO, Bectin-Dickinson Inc., Mountain View, Calif.) following staining cells with Phyco-Erytrin (PE)-conjugated anti-CD19 or -B220 antibodies (Becton Dickinson, San Jose, Calif. 95131).
After 18 hours of incubation, % viability of splenocytes was determined by FACSort after staining cells by the use of an Annexin V-FITC/PI Apoptosis Detection kit (BioVision Inc.). Viable cells were defined by Annexin V-negative, PI-negative cells.

BCL-2 transgenic mice = test: Oral efficacy study in BCL-2 transgenic mice (splenomegaly); format: in vivo, mouse
Protocol: The transgene was propagated on the Balb/c background.
as §3, §5
Representative data are shown by FIGS. 11A and 11B.

[5] = Liver microsomal stability; conditions: rat liver microsomes, 4 μM, 60 min
Protocol: Pooled rat liver microsomes (BD Biosciences, #452701) were preincubated with test compounds at 37.5° C. for 5 min in the absence of NADPH. The reaction was initiated by addition of NADPH and then incubated under the same conditions. […] One aliquot (100 μL) of the incubation mixture was withdrawn at 0, 15, 30, and 60 min and combined immediately with 200 μL of ACN/MeOH containing an internal standard. After mixing, the sample was centrifuged at approximately 13,000 rpm for 12 min. The supernatant was transferred into an autosampler vial and the amount of test compound was quantified using the Shimadzu LCMS 2010EV mass spectrometer. The change of the AUC (area under the curve) of the parent compound as function of time was used as a measure of microsomal stability.

[6] = PAMPA (parallel artificial membrane permeation assay); conditions: for Cell Permeability: PAMPA, pH 7.2, 8 h
Protocol: PAMPA is parallel artificial membrane permeation assay. A 96-well microtiter plate (Millipore, # MSSACCEPTOR) was completely filled with aqueous buffer solution (pH 7.2) and covered with a microtiter filterplate (Millipore, # MAPBMN310). The hydrophobic filter material was impregnated with a 10% solution of hexadecane in hexane and the organic solvent was allowed to completely evaporate. Permeation studies were started by the transfer of 200 μL of a 100 μM test compound solution on top of the filterplate. In general phosphate buffer at pH 7.2 buffer was used. The maximum DMSO content of the stock solutions was <5%. In parallel, an equilibrium solution lacking a membrane was prepared using the exact concentrations and specifications but lacking the membrane. The concentrations of the acceptor and equilibrium solutions were determined using the Shimadzu LCMS-2010EV and AUC methods. The permeation of a compound through the membrane layer is described by the percentage permeation (% flux). The flux values were calculated considering the concentration of the acceptor compartment after 8 h and that of a reference well with the same concentration containing no membrane barrier.

BCL-XL [7] = molecular target: T1, BCL-XL (Homo sapiens (Human), UniProt Q07817); test: 1D 1H-NMR binding assay; as to 1D 1H-NMR Binding Assay (BCL-XL): key: +++: Very Active; ++: Active; +: Mild; −: Weak
Protocol: By observing the aliphatic region of the spectra, binding could be readily detected due to chemical shift changes in active site methyl groups of Ile, Leu, Thr, Val or Ala (region between −0.8 and 0.3 ppm). All experiments were performed with a 600 MHz spectrometer Bruker Avance 600 equipped with four rf channels and z-axis pulse-field gradients.

GST-BCL-XL ΔTM protein = GST-BCL-XL ΔTM protein (Homo sapiens (Human), UniProt Q07817); test: Competitive fluorescence polarization assay (FITC-Bak BH3 peptide); format: binding
Protocol: For competitive binding assays, 100 nM GST-BCL-XL ΔTM protein was preincubated with the tested compound at varying concentrations in 47.5 μL PBS (pH=7.4) in 96-well black plates at room temperature for 10 min, then 2.5 μL of 100 nM FITC-labeled Bak BH3 peptide was added to produce a final volume of 50 μL. The wild-type and mutant Bak BH3 peptides were included in each assay plate as positive and negative controls, respectively.
IC50 was determined by fitting the experimental data to a sigmoidal dose-response nonlinear regression model (SigmaPlot 10.0.1, Systat Software, Inc., San Jose, Calif., USA). Data reported are mean of three independent experiments ±standard error (SE). […] Fluorescence polarization was measured after 10 min.

GST-Mcl-1 = GST-Mcl-1 (Homo sapiens (Human), UniProt Q07820); test: Fluorescence polarization assay (FITC-Bim BH3 peptide); format: binding
Protocol: as §1, with “(SE).” for “(SE). Performance of BCL-2 and Mcl-1 FPA are similar.”

BCL-XL [8] = molecular target: T1, BCL-XL; test: Isothermal titration calorimetry (ITC); format: binding
Protocol: Titrations were performed using a VP-ITC or ITC200 calorimeter from Microcal (Northampton, Mass.). BCL-XL was used at concentrations between 25 and 100 μM in 20 mM sodium phosphate buffer (pH 7.4) and 5-10% DMSO. Titrants were used at concentrations 10-15× of the protein in the same buffer. Titrations were carried out at 25° C. Data were analyzed using Microcal Origin software provided by the ITC manufacturer (Microcal, Northampton, Mass.).

B6BCL2 mouse = test: Spleen weight in B6BCL2 transgenic mice after intraperitoneal injection; format: in vivo
Protocol: Transgenic mice expressing BCL-2 have been described as the B6 line. The BCL-2 transgene represents a minigene version of a t(14;18) translocation in which the human BCL-2 gene is fused with the immunoglobulin heavy-chain (IgH) locus and associated IgH enhancer. The transgene was propagated on the Balb/c background.
After 24 hours, B6BCL2 mice were sacrificed by intraperitoneal injection of lethal dose of Avertin. Spleen was removed and weighed. […] Spleen tissue was fixed in z-FIX for 3 days and rinsed in PBS, and saved for histological analysis of spleen (H&E staining and TUNEL assay).

T1 sequence (Q07817 whole entry): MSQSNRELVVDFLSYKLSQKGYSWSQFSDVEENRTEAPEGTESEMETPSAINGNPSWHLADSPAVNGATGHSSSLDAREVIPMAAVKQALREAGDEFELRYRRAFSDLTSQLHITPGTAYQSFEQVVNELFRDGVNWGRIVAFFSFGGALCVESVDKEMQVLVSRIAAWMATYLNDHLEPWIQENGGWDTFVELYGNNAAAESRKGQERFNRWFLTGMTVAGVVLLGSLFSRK
GST-BCL-2, sequence (P10415 whole entry): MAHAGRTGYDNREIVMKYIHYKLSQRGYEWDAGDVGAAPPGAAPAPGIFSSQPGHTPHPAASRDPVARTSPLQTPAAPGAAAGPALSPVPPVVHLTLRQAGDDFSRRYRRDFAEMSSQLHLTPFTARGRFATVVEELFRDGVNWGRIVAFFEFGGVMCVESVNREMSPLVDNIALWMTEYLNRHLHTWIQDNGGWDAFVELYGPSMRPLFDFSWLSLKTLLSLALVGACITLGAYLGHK
GST-BCL-XL ΔTM protein, sequence (Q07817 1-209): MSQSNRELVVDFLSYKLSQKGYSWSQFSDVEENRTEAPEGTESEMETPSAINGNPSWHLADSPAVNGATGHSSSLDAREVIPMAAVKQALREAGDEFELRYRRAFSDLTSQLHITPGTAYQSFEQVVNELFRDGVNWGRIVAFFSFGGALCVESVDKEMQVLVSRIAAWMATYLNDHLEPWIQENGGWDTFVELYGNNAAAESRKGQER
GST-Mcl-1, sequence (Q07820 whole entry): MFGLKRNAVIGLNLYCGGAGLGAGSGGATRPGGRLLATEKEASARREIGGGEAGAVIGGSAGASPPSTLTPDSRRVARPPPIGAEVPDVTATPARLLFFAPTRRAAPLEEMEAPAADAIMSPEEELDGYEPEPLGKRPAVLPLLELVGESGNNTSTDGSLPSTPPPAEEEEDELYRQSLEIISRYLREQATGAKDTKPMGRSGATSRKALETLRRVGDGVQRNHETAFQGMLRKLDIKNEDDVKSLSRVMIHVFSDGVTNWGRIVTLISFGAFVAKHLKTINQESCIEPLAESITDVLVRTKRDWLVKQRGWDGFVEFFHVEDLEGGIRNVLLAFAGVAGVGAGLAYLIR
Mcl-1, sequence (Q07820 whole entry): as above

## CN(C)CC[C@H](CSc1ccccc1)Nc1ccc(S(=O)(=O)NC(=O)c2ccc(N3CCN(Cc4ccccc4-c4ccc(Cl)cc4)CC3)cc2)cc1[N+](=O)[O-] [ABT-737]
Mcl-1
  effectiveness against Mcl-1: not effective
H1299
  killing of Mcl-1 overexpressing cell lines such as H1299: not effective in killing

## Cc1cc2c(C(C)C)c(O)c(O)cc2c(O)c1-c1c(C)cc2c(C(C)C)c(O)c(O)cc2c1O [Apogossypol, apogossypol]
GST-BCL-2
  pEC50: 5.55
H460 cell line
  pEC50: 5.55
H460 cell line; listed as apogossypol
  pEC50: 5.47
PC3ML cells; 72 hours, ATP-LITE
  pEC50: 4.99
RS11846 cell line [1]
  pEC50: 5.30
RS11846 cell line [2]
  pEC50: 5.07
Plasma stability
  Plasma Stability (T = 1 hr): 53%
Balb/c mice; […] oral, day 18 of treatment
  mice found dead: One of 6
Balb/c mice; […] oral, three weeks
  general condition of mice: remained active and apparently healthy
Balb/c mice; orally or by intraperitoneal injection
  toxicity, preliminary maximum tolerated dose (MTD) studies: less toxic than gossypol
380 cell line
  sensitivity of 380 cell line: slightly more resistant
DOHH2 cell line
  pIC50: ~5.52
RS11846 cell line [3]
  pIC50: ~5.52
[4]
  pIC50: 5.70 to 6.00
BCL-2 transgenic mice; 0.06 mmol/kg oral, QDX5 for 3 weeks
  tolerability, low dose: well tolerated
BCL-2 transgenic mice; 0.06 mmol/kg oral, QDX5 for 3 weeks, wet weight and B-cell count
  shrinkage of spleen, low dose: induced shrinkage of spleen to a significant extent
BCL-2 transgenic mice; […] daily oral
  spleen size, high dose: reduced roughly by half
BCL-2 transgenic mice; […] oral, QDX5 for 3 weeks
  tolerability, high dose: well tolerated
[5]
  Microsomal Stability (T = 1 hr): 60%
[6]
  Cell Permeability: Low

## Cc1cc2c(C(=O)Cc3ccccc3)c(O)c(O)cc2c(O)c1-c1c(C)cc2c(C(=O)Cc3ccccc3)c(O)c(O)cc2c1O [Compound I, 1,1′-(1,1′,6,6′,7,7′-hexahydroxy-3,3′-dimethyl-2,2′-binaphthyl-5,5′-diyl)bis(2-phenylethanone)]
BCL-XL [7]; 1D 1H-NMR spectra
  chemical shift changes in active site methyl groups of BCL-XL: significant chemical shift changes
BCL-XL [7]; 4-point-rating scale, compounds 200 μM, BCL-XL 25 μM
  1D 1H-NMR Binding Assay (BCL-XL): +++
GST-BCL-XL ΔTM protein
  times more effective than apogossypol, FP displacement BCL-XL: ~20 times
GST-BCL-XL ΔTM protein; Table 3, read-out: EC50 FPA BCL-XL
  pEC50: 6.72
GST-BCL-2
  fold more potent than apogossypol, BCL-2 FPA: approximately 8 fold
  pEC50: 6.44
GST-Mcl-1
  fold more potent than apogossypol, Mcl-1 FPA: ~5 fold
GST-Mcl-1; read-out: EC50 FPA Mcl-1
  pEC50: 6.28
BCL-XL [8]
  times more potent than apogossypol, Kd ITC BCL-XL: 10 times
BCL-XL [8]; 25° C., pH 7.4
  pKd: 6.77
H460 cell line
  times more potent than apogossypol, H460 EC50: 4-5 times
PC3ML cells
  fold more potent than apogossypol, PC3ML EC50: 2-5 fold
RS11846 cell line [2]
  pEC50: 5.31
Plasma stability; 1 hour
  degraded after 1 hour incubation in rat plasma: 15%
Plasma stability
  Plasma Stability (T = 1 hr): 85%
B6BCL2 mouse; mouse, in vivo
  macroscopic toxicity: no macroscopic toxicity
B6BCL2 mouse; single BCL-2 transgenic mouse, 60 μmol/kg, intraperitoneal, 24 hours
  reduction in spleen weight, single mouse: 40%
B6BCL2 mouse; six mice, P<0.0001 vs control
  reduction of spleen weight, groups of six mice: ~40%
[5]
  Microsomal Stability (T = 1 hr): 64%
[6]
  cell membrane permeability compared to apogossypol: improved
  Cell Permeability: Medium
